Assay results as given in patent publication US10441608B2, “Continuous methods for treating liquids and manufacturing certain constituents (e.g., nanoparticles) in liquids, apparatuses and nanoparticles and nanoparticle/liquid solution(s) resulting therefrom” (Clene Nanomedicine, Inc., priority 2009, dated 2019).
Several values for one entry are separate records, joined by “and”; a condition that tells them apart may be missing. Equal values may be shown once. Read-outs that look alike come from different tables or passages of the source.

Assays:
Assay type in all cases: cell-based
[1] = test system: Gram-Positive and Gram Negative bacteria
[2] = test system: Trypanosoma b. rhodesiense STIB 900; assay: Alamar Blue assay against Human African Trypanosomiasis parasites
Description: Minimum Essential Medium (50 μl) supplemented according to Baltz et al. (1985) with 2-mercaptoethanol and 15% heat-inactivated horse serum was added to each well of a 96-well microtiter plate.
Serial drug dilutions were prepared covering a range from 90 to 0.123 μg/ml.
Then 10^4 bloodstream forms of Trypanosoma b. rhodesiense STIB 900 in 50 μl were added to each well and the plate incubated at 37° C. under a 5% CO2 atmosphere for 72 hours.
10 μl of Alamar Blue (12.5 mg resazurin dissolved in 100 mL distilled water) were then added to each well and incubation continued for a further 2-4 hours.
Then the plates were read with a Spectramax Gemini XS microplate fluorometer (Molecular Devices Cooperation, Sunnyvale, Calif., USA) using an excitation wave length of 536 nm and an emission wave length of 588 nm.
Data were analysed using the software Softmax Pro (Molecular Devices Cooperation, Sunnyvale, Calif., USA). Decrease of fluorescence (=inhibition) was expressed as percentage of the fluorescence of control cultures and plotted against the drug concentrations.
From the sigmoidal inhibition curves the IC50 values were calculated.

a variety of fungi = assay: Broth microdilution MIC/MID 50 against fungi; conditions: antifungal concentration
Description: The clinical and laboratory standards institute Broth Microdilution Methodology was employed, however, the growth medium used was an “RPMI” medium. Table 22c uses a format similar to that used for Table 22a, however, the test solutions were tested against a variety of fungi.

With CCC[C@@H]1C[C@@H](C(=O)N[C@@H]([C@H]2O[C@H](SC)[C@H](O)[C@@H](O)[C@H]2O)[C@H](C)Cl)N(C)C1 [Clindamycin] the “MID/MIC (amount of antibiotic)” value [1] was no more than 0.06 mg/L, the “MID/MIC (amount of antibiotic)” value ([1]; CD01 Clostridium difficile, Brucella broth with 5% LHB, 1 μg/mL Vit K, 1 μg/mL Haemin) was 4 mg/L and the “MID/MIC (amount of antibiotic)” value ([1]; CD02 Clostridium difficile, Brucella broth with 5% LHB, 1 μg/mL Vit K, 1 μg/mL Haemin) was 2 mg/L. The “MID/MIC (amount of antibiotic)” value ([1]; CD03 Clostridium difficile, Brucella broth with 5% LHB, 1 μg/mL Vit K, 1 μg/mL Haemin) was 2 mg/L and 1 mg/L, the “MID/MIC (amount of antibiotic)” value ([1]; CD04 Clostridium difficile, Brucella broth with 5% LHB, 1 μg/mL Vit K, 1 μg/mL Haemin) was 1 mg/L and the “MID/MIC (amount of antibiotic)” value ([1]; CD05 Clostridium difficile, Brucella broth with 5% LHB, 1 μg/mL Vit K, 1 μg/mL Haemin) was 1 mg/L. The “MID/MIC (amount of antibiotic)” value ([1]; CD06 Clostridium difficile, Brucella broth with 5% LHB, 1 μg/mL Vit K, 1 μg/mL Haemin) was 1 mg/L, the “MID/MIC (amount of antibiotic)” value ([1]; CD07 Clostridium difficile, Brucella broth with 5% LHB, 1 μg/mL Vit K, 1 μg/mL Haemin) was 1 mg/L and the “MID/MIC (amount of antibiotic)” value ([1]; CD08 Clostridium difficile, Brucella broth with 5% LHB, 1 μg/mL Vit K, 1 μg/mL Haemin) was 0.5 mg/L and 1 mg/L. For the same compound, the “MID/MIC (amount of antibiotic)” value ([1]; CD09 Clostridium difficile, Brucella broth with 5% LHB, 1 μg/mL Vit K, 1 μg/mL Haemin) was 1 mg/L and 2 mg/L, the “MID/MIC (amount of antibiotic)” value ([1]; GN10 Pseudomonas aeruginosa ATCC27853, antibiotic-susceptible type strain) was 1 mg/L and the “MID/MIC (amount of antibiotic)” value ([1]; GN32 Acinetobacter baumanii, multi-drug resistant clinical isolate) was 50.06 mg/L. For the same compound, the “MID/MIC (amount of antibiotic)” value ([1]; P8119035 Citrobacter freundii, resistant clinical isolate) was 4 mg/L.
With Nc1nc(N)nc(Nc2ccc([As]3SCC(CO)S3)cc2)n1 (stereo not shown) [Melarsoprol] the IC50 ([2]; 72 h, read-out: T.b. rhod. IC/50 Trial I) was 0.003 mg/L, the IC50 ([2]; 72 h, read-out: T.b. rhod. IC/50 Trial III) was 0.002 mg/L and the IC50 ([2]; 72 h, read-out: T.b. rhod. IC/50 Trial V) was 0.005 mg/L. The IC50 ([2]; read-out: T.b. rhod. IC/50 Avg less 1 ng/ml) was 0.00333 mg/L.
C[C@@H]1[C@H](O)[C@@H](C)/C=C/C=C/C=C/C=C/C=C/C=C/C=C/[C@H](O[C@@H]2O[C@H](C)[C@@H](O)[C@H](N)[C@@H]2O)C[C@@H]2O[C@](O)(C[C@@H](O)C[C@@H](O)[C@H](O)CC[C@@H](O)C[C@@H](O)CC(=O)O[C@H]1C)C[C@H](O)[C@H]2C(=O)O [Amphotericin B] was tested, and the MID/MIC (a variety of fungi; ATCC 22019 Candida parapsilosis - 24 hrs) was 0.5 mg/L, the MID/MIC (a variety of fungi; ATCC 22019 Candida parapsilosis - 48 hrs §§ (24 hour read)) was 1 mg/L and the MID/MIC (a variety of fungi; NCPF 118 Trichophyton rubrum 48 hrs §§ (24 hour read)) was 0.5 mg/L and 1 mg/L. For the same compound, the MID/MIC (a variety of fungi; NCPF 175 Trychophyton interdigitale 72 hrs §§ (24 hour read)) was 2 mg/L, the MID/MIC (a variety of fungi; NCPF 177 *Microsporum canis - 72 hrs }} (required 72 hours incubation)) was 0.12 mg/L and the MID/MIC (a variety of fungi; NCPF 224 Trichophyton mentagrophytes - 48 hrs §§ (24 hour read)) was 2 mg/L. It also gave an MID/MIC (a variety of fungi; NCPF 436 *Microsporum audounii - 72 hrs }} (required 72 hours incubation)) of 0.5 mg/L, an MID/MIC (a variety of fungi; NCPF 988 *Microsporum ferrugineum - 72 hrs }} (required 72 hours incubation)) of 1 mg/L and an MID/MIC (a variety of fungi; NCPF 2140 Aspergiflus fumigatus - 48 hrs §§ (24 hour read)) of 2 mg/L. For the same compound, the MID/MIC (a variety of fungi; NCPF 2175 Aspergillus flavus - 48 hrs §§ (24 hour read)) was 4 mg/L, the MID/MIC (a variety of fungi; NCPF 2634 Rhizopus oligosporus - 24 hrs) was 0.5 mg/L and the MID/MIC (a variety of fungi; NCPF 2715 Penicillium chrysogenum 48 hrs §§ (24 hour read)) was 2 mg/L. It also gave an MID/MIC (a variety of fungi; NCPF 2722 Fusarium oxysporum - 48 hrs) of 1 mg/L, an MID/MIC (a variety of fungi; NCPF 2743 Mucor circinelloides - 48 hrs) of 1 mg/L and an MID/MIC (a variety of fungi; NCPF 3309 Candida glabrata - 24 hrs) of 0.5 mg/L. It also gave an MID/MIC (a variety of fungi; NCPF 3309 Candida glabrata - 48 hrs) of 1 mg/L, an MID/MIC (a variety of fungi; NCPF 3516 Candida lusitaniae - 24 hrs) of 0.5 mg/L and an MID/MIC (a variety of fungi; NCPF 3516 Candida lusitaniae - 48 hrs §§ (24 hour read)) of 1 mg/L. For the same compound, the MID/MIC (a variety of fungi; NCPF 3853 Trichophyton cutaneum 48 hrs §§ (24 hour read)) was 0.5 mg/L, the MID/MIC (a variety of fungi; NCPF 5011 Epidermophyton floccosum - 48 hrs) was 0.25 mg/L and the MID/MIC (a variety of fungi; NCPF 7075 *Sporothrix schenkii - 72 hrs (required 72 hours incubation)) was 1 mg/L. The MID/MIC (a variety of fungi; NCPF 7147 Alternaria altemata - 48 hrs §§ (24 hour read)) was 1 mg/L and the MID/MIC (a variety of fungi; NIH 2624 Aspergillus terreus - 48 hrs §§ (24 hour read)) was 2 mg/L.
